Test results from US9844214B2, “Alpha connexin C-terminal (ACT) peptides for use in transplant” (MUSC Foundation for Research Development, priority 2004, dated 2017).
“Also recorded” adds a separate entry of the source.

Legend:
HUVECs [1] = experiment: HUVEC H2O2 oxidative injury model; format: cell-based, human; conditions: 200 nM H2O2, ±ACT1 peptide
Experimental: (§1) HUVECs were exposed to two experimental conditions to model organ cold storage and reperfusion injuries. Cells were either (A) exposed to 200 nM H2O2 to induce oxidative injury, or (B) exposed to 6 h of cold preservation in UW at 4° C. in hypoxic conditions in the presence or absence of 100 μM ACT1 peptide, followed by 48 h of reperfusion in normal media.
(§2) HUVECs were exposed to either 18 h of cold storage in UW solution or UW/ACT1 followed by 48 h of reperfusion to model IRI in vitro, as previously described (Atkinson et al., 2013), or H2O2±ACT1 peptide to model oxidative stress. Efficacy was determined by TEER and IL-8 release.

porcine kidney = experiment: Porcine kidney model of cold ischemia (Cx43, nitrotyrosine, apoptosis staining); set-up: species or system pig
Experimental: These studies were conducted using kidneys procured from 2 standard criteria donor pigs. The organs were flushed via the aorta with preservation solution after 10 minutes of warm ischemia post-mortem. Biopsies were taken prior to treatment. The kidneys were then flushed with either cold Belzer's solution (control) or the same solution containing 100 μm ACT1 peptide, and stored in the respective solutions on ice for 24 h. Biopsies were taken at regular intervals and sections were stained for Cx43 and nitrotyrosine.

mouse tracheas = experiment: Mouse trachea cold storage histology; conditions: 6 h at 4° C. in PBS+ACT1 peptide vs PBS
[2] = tested on: mouse cardiac endothelial cells; experiment: In vitro cold storage and reperfusion injury model, endothelial cells; format: cell-based; conditions: for IL-8 secretion, endothelial cells (Elisa): UW solution supplemented with ACT1 peptide
Experimental: These studies were conducted using a modification of the in vitro donor cold storage and reperfusion injury model (Casiraghi et al., 2009). Human umbilical vein endothelial cells (HUVECs) and mouse microvascular endothelial cells were grown to confluence on transwells and transendothelial resistance (TEER) was recorded. To model cold ischemia and reperfusion injury growth, media was removed from the cells and replaced with either ice cold UW solution or UW solution containing ACT1 peptide, and cultures were exposed to 6 h of hypoxia in a hypoxic chamber (Billups-Rothenberg, Del Mar, Calif.) at 4° C. Following hypoxic exposure, UW solution was removed, and to stimulate reperfusion, UW solution was replaced with fresh pre-warmed (37° C.) culture media, and cells were monitored for 24 h. TEER was measured at three time points post reperfusion as a marker of endothelial/epithelial cell death and dysfunction. A loss of […], as measured by TEER, across the cellular monolayer is associated with a loss of cell-cell communication (thus, gap junction and tight junction injury), cell injury, and a leaky endothelial cell lining. In vivo, this would translate as dysfunction of the cell layer and facilitate uncontrolled fluid trafficking, loss of vascular tone, reduced barrier function that would facilitate immune cell infiltration.

[3] = tested on: Balb/c donor hearts implanted into B6 recipients; experiment: Mouse heterotopic heart allotransplantation model, 48 h post transplantation; format: in vivo
Experimental: Heart allograft transplants were performed between Balb/c donors to B6 recipients. Balb/c donor hearts were removed, perfused with UW solution and then static cold stored in either UW solution alone or UW solution supplemented with 100 μM ACT1 peptide for 6 h at 4° C. Following storage, hearts were implanted into B6 recipients using an abdominal heart transplant procedure.
Heterotopic abdominal heart transplants were performed between Balb/c and C57Bl/6 mice, as previously described (Gao et al., 2014). Donor hearts were cold preserved in UW or UW/ACT1 ([…]) for 6 h at 4° C. Following storage, hearts were then implanted and harvested at 48 h post transplantation to access the impact of ACT1 peptide post-treatment on IRI. Post transplant injury was assessed by analyses of serum Cardiac Troponin I and histological scoring of cardiac graft injury (FIG. 9) and inflammation; neutrophil and macrophage infiltration (FIG. 10), and pro-inflammatory cytokine.

[4] = mouse, in vivo
Experimental: Three CD1 mice were anesthetized by IP injection of 0.2 mL Salazine/ketamine. 10 μL of 1 mM ACT1 peptide dissolved in a solution containing normal saline and 0.05% Brij-78 was gently dripped onto the corneal surface of both eyes and allowed to permeate for 20 or 40 min. 0.05% Brij-78 in normal saline was used on a control mouse. The mice were sacrificed in a CO2 chamber and cervically dislocated at 20, 40 min (the control mouse sacrificed at 20 min). The eyes were removed and rinsed in PBS. A small incision was made in the anterior chamber and the aqueous humor (˜10 μL) was transferred to tube and flash frozen in a dry ice ethanol bath. The total sample was dissolved in 2× samples loading buffer and loaded on a 10-20% Tris-Tricine gel. Gel was transferred to a PDVF membrane and stained using RBT Sigma anti-CX43 CT antibody (1:10000) and a goat anti-RBT AP secondary (1:15000) to reveal the ACT1 band at <10 kDa.

[5] = tested on: human respiratory epithelial cells; experiment: In vitro cold storage and reperfusion injury model, epithelial cells; format: cell-based
ARPE-19 cells = experiment: VEGF-induced deterioration of trans-epithelial resistance (TER) in ARPE19 monolayers; format: cell-based, human; conditions: ARPE19 monolayers pre-treated with the ACT peptide
Text: Thus, while not wishing to be bound by theory, stabilizing the tight junction proteins with the ACT peptide can prevent loss of tight-junction disintegration and thus damage to RPE/Bruch's membrane.

HUVECs [6] = experiment: HUVEC cold preservation, hypoxia and reperfusion model; format: cell-based, human; conditions: 48 h reperfusion
Experimental: as §1, §2

[7] = UW solution with 100 μM ACT1, 6 h hypoxia at 4° C., 4, 8 and 24 h post reperfusion, listed as ACT1 peptide
[8] = UW + 100 μM ACT1, 6 h at 4° C., 48 h post transplantation, n=6, listed as ACT1 peptide
[9] = UW/ACT1 (1000 μM) 6 h at 4° C., 48 h, n=3-6

## RQPKIWFPNRRKPWKKRPRPDDLEI [ACT1]
HUVECs [1]
  Trans-endothelial resistance after H2O2 oxidative injury: significantly protects endothelial cells from H2O2 to induce oxidative stress
Porcine kidney; 100 μM ACT1, cold ischemia 24 h
  apoptosis (TUNEL and caspase): minimizes mitochondrial oxidant production (nitrotyrosine) and apoptosis (TUNEL and caspase)
Porcine kidney; 100 μM ACT1 in cold Belzer's solution, up to 24 h cold ischemia, listed as ACT1 peptide
  Cx43 staining (gap junctions): stabilizes gap junctions (Cx43); also recorded: Punctate Cx43 staining in the membrane (gap junctions) were preserved
Mouse tracheas
  trachea histology: preserved trachea histology
[2]
  IL-8 secretion, endothelial cells (Elisa): significantly reduced pro-inflammatory cytokine (IL-8) release
[2]; listed as ACT1 peptide
  IL-8 secretion, endothelial cells (Elisa): significant reduction in IL-8 secretion
[2]; [7]
  TEER / cellular injury, endothelial cells: significantly elevated TEER readings; also recorded: significantly reduced cellular injury
[3]; [8]
  Histological injury score (FIG. 6A): significantly reduced cardiac injury
  neutrophil infiltration (FIG. 6C): significantly reduced neutrophil
  serum cardiac troponin I levels (FIG. 6B): reduced serum cardiac troponin I; also recorded: significantly reduced
[3]; [9]
  macrophage (Mac-3) infiltration, immunohistochemistry (FIG. 10B): significantly reduces post transplant innate immune cell infiltration
  neutrophil (Gr-1) infiltration, immunohistochemistry (FIG. 10A): significantly reduces post transplant innate immune cell infiltration
[3]; UW/ACT1 (1000 μM) 6 h at 4° C., 48 h post transplantation, n=3-6
  serum concentration of Cardiac troponin I (FIG. 9B): significantly reduces post transplantation IRI injury
[3]; UW/ACT1 (1000 μM) 6 h at 4° C., 48 h post transplantation, n=3-6, listed as ACT1 peptide
  post transplantation IRI injury, histological grading (FIG. 9A): significantly reduces ischemic reperfusion induced graft injury and inflammation; also recorded: significantly reduces post transplantation IRI injury
[4]
  ACT1 in fluid from the posterior chamber (vitreous humor), Western blot: Lower levels of ACT1 could also be detected
[5]; UW solution supplemented with ACT1 peptide
  IL-8 secretion, epithelial cells: significant reduction in IL-8 secretion
[5]; [7]
  TEER / cellular injury, epithelial cells: significantly elevated TEER readings; also recorded: significantly reduced cellular injury
ARPE-19 cells
  VEGF-induced deterioration of TER: prevents VEGF-induced deterioration of TER
HUVECs [6]; 6 h cold preservation in UW at 4° C., hypoxic, 100 μM ACT1
  Trans-endothelial resistance after cold preservation, hypoxia and reperfusion: significantly protects endothelial cells from H2O2 to induce oxidative stress, and cold preservation, hypoxic reperfusion injury
HUVECs [6]; UW ± 100 μM ACT1
  IL-8 secretion after cold preservation, hypoxia and reperfusion: rendered less pro-inflammatory as compared to untreated cells
